In the test the target is T1, APOL1 (Homo sapiens, UniProt O14791).
T1 sequence (O14791 1-398 S342G/I384M): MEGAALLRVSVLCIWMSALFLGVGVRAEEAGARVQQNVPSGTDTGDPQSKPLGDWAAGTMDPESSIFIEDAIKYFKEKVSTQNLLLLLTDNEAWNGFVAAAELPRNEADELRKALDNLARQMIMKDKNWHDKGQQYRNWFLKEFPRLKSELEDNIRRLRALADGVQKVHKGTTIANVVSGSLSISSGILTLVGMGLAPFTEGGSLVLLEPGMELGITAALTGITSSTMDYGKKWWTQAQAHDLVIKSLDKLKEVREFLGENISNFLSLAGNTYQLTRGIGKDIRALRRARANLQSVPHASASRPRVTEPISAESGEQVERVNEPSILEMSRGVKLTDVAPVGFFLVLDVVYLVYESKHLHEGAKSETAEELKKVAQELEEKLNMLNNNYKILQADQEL
Kind of test: MultiTox-Fluor Multiplex Cytotoxicity Assay in tet-inducible APOL1 T-REx-HEK293 cells (cell rescue, ratio of dead to live cells). The format is cell-based. To be noted: tet-inducible transgenic APOL1 T-REx-HEK293 cell lines, 50 ng/mL tet, 24 hours; read-out: IP50 (i.e., IC50 for cell proliferation). The procedure, abridged:
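T-REx-HEK293 cells with tet-inducible APOL1 were treated with compound (10 μM top, 10-point 3-fold dilution, duplicate) plus 50 ng/mL tetracycline for 24 h at 37° C, in DMEM with 2% tet-free FBS. MultiTox-Fluor protease signals gave a dead/live ratio, normalized to no tet (100% viability) and tet alone (0%).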

Structures are written as SMILES.

As to `C[C@H]1C[C@@]2(CCN1Cc1cn(CCS(C)(=O)=O)nn1)OCCc1cc(CO)sc12` [Compound 1019, [(2′S, 7R)-2′-methyl-1′-[[1-(2-methylsulfonylethyl)triazol-4-yl]methyl]spiro[4,5-dihydrothieno[2,3-c]pyran-7,4′-piperidine]-2-yl]methanol], the IC50 was 500 to 1000 nM. As for `C[C@H]1C[C@@]2(CCN1Cc1cnn(C)c1)OCCc1cc(C(C)(C)C)sc12` [Compound 1020, (2S,4R)-2′-(tert-butyl)-2-methyl-1-((1-methyl-1H-pyrazol-4-yl)methyl)-4′,5′-dihydrospiro[piperidine-4,7′-thieno[2,3-c]pyran]], the figure is 500 to 1000 nM; as for `C[C@H]1CC2(CCN1Cc1cnn(C)c1)OC1CCCCC1c1cc(Cl)sc12` (stereo partly drawn) [Compound 1021, (2S)-2′-chloro-2-methyl-1-((1-methyl-1H-pyrazol-4-yl)methyl)-5a′,6′,7′,8′,9′,9a′-hexahydrospiro[piperidine-4,4′-thieno[2,3-c]chromene]], 100 to 500 nM; as for `C[C@H]1CC2(CCN1Cc1cnn(CCS(C)(=O)=O)c1)OCC1(CC1)c1cc(Cl)sc12` (some centres unmarked) [Compound 1022, (2″S)-2′-chloro-2″-methyl-1″-((1-(2-(methylsulfonyl)ethyl)-1H-pyrazol-4-yl)methyl)-5′H-dispiro[cyclopropane-1,4′-thieno[2,3-c]pyran-7′,4″-piperidine]], less than 100 nM. Turning to `C[C@H]1CC2(CCN1Cc1cnn(CCS(C)(=O)=O)c1)OCCc1c2sc2ccccc12` (stereo partly drawn) [Compound 1023, (2′S)-2′-methyl-1′-((1-(2-(methylsulfonyl)ethyl)-1H-pyrazol-4-yl)methyl)-3,4-dihydrospiro[benzo[4,5]thieno[2,3-c]pyran-1,4′-piperidine]], the IC50 was in the range of 500 to 1000 nM.

With `Cc1cc2c(s1)[C@]1(CCN(Cc3cn[nH]c3)[C@@H](C)C1)OCC2` [Compound 1024, (2′S, 7R)-2,2′-dimethyl-1′-(1H-pyrazol-4-ylmethyl)spiro[4,5-dihydrothieno[2,3-c]pyran-7,4′-piperidine]], the IC50 was less than 100 nM. As for `Cc1cc2c(s1)[C@]1(CCN(Cc3cnc(NC(C)(C)CO)nc3)[C@@H](C)C1)OCC2` [Compound 1025], the figure is less than 100 nM; as for `Cc1cc2c(s1)[C@]1(CCN(Cc3cnn(CCS(C)(=O)=O)c3)[C@@H](C)C1)OCC2` [Compound 1026], less than 100 nM. On to `Cc1cc2c(s1)[C@]1(CCN(Cc3cnn(CCO)c3)[C@@H](C)C1)OCC2` [Compound 1027, 2-[4-[[(2′S, 7R)-2,2′-dimethylspiro[4,5-dihydrothieno[2,3-c]pyran-7,4′-piperidine]-1′-yl]methyl]pyrazol-1-yl]ethanol], for which the IC50 is less than 100 nM. For the compound `Cc1cc2c(s1)[C@]1(CCN(Cc3cnn(CC(C)(CO)CO)c3)[C@@H](C)C1)OCC2` [Compound 1028, 2-[[4-[[(2′S, 7R)-2,2′-dimethylspiro[4,5-dihydrothieno[2,3-c]pyran-7,4′-piperidine]-1′-yl]methyl]pyrazol-1-yl]methyl]-2-methyl-propane-1,3-diol], the IC50 was less than 100 nM. As for `Cc1cc2c(s1)C1(CCN(Cc3cn(CCS(C)(=O)=O)nn3)[C@@H](C)C1)OCC2` (stereo partly drawn) [Compound 1029, (2′S)-2,2′-dimethyl-1′-[[1-(2-methylsulfonylethyl)triazol-4-yl]methyl]spiro[4,5-dihydrothieno[2,3-c]pyran-7,4′-piperidine]], the figure is 100 to 500 nM; as for `Cc1cc2c(s1)[C@]1(CCN(Cc3cnn(CCS(C)(=O)=O)c3)[C@@H](C)C1)OCC2(O)C(F)F` (stereo partly drawn) [Compound 1031, (2′S, 7R)-4-(difluoromethyl)-2,2′-dimethyl-1′-[[1-(2-methylsulfonylethyl)pyrazol-4-yl]methyl]spiro[5H-thieno[2,3-c]pyran-7,4′-piperidine]-4-ol], less than 100 nM. As for `C[C@H]1C[C@@]2(CCN1Cc1cnn(CCS(C)(=O)=O)c1)OCCc1cc(CC(F)(F)F)sc12` [Compound 1032, (2′S, 7R)-2′-methyl-1′-[[1-(2-methylsulfonylethyl)pyrazol-4-yl]methyl]-2-(2,2,2-trifluoroethyl)spiro[4,5-dihydrothieno[2,3-c]pyran-7,4′-piperidine]], the figure is less than 100 nM; as for `C[C@H]1C[C@@]2(CCN1Cc1cnn(CCS(C)(=O)=O)c1)OCCc1cc(C3CCC3)sc12` [Compound 1033, (2′S,7R)-2-cyclobutyl-2′-methyl-1′-[[1-(2-methylsulfonylethyl)pyrazol-4-yl]methyl]spiro[4,5-dihydrothieno[2,3-c]pyran-7,4′-piperidine]], less than 100 nM; as for `C[C@H]1C[C@@]2(CCN1Cc1cnn(CCS(C)(=O)=O)c1)OCCc1cc(C3CC3)sc12` [Compound 1034, (2′S, 7R)-2-cyclopropyl-2′-methyl-1′-[[1-(2-methylsulfonylethyl)pyrazol-4-yl]methyl]spiro[4,5-dihydrothieno[2,3-c]pyran-7,4′-piperidine]], less than 100 nM. As for `C[C@H]1C[C@@]2(CCN1Cc1cnn(CCS(C)(=O)=O)c1)OCCc1cc(C#N)sc12` [Compound 1035, (2′S,7R)-2′-methyl-1′-[[1-(2-methylsulfonylethyl)pyrazol-4-yl]methyl]spiro[4,5-dihydrothieno[2,3-c]pyran-7,4′-piperidine]-2-carbonitrile], the figure is less than 100 nM. As for `CCc1cc2c(s1)[C@]1(CCN(Cc3cn(CCS(C)(=O)=O)nn3)[C@@H](C)C1)OCC2` [Compound 1036, (2′S, 7R)-2-ethyl-2′-methyl-1′-[[1-(2-methylsulfonylethyl)triazol-4-yl]methyl]spiro[4,5-dihydrothieno[2,3-c]pyran-7,4′-piperidine]], the IC50 was less than 100 nM. As for `CCc1cc2c(s1)[C@]1(CCN(Cc3cnn(CCS(C)(=O)=O)c3)[C@@H](C)C1)OCC2O` (stereo partly drawn) [Compound 1037, (2′S, 7R)-2-ethyl-2′-methyl-1′-[[1-(2-methylsulfonylethyl)pyrazol-4-yl]methyl]spiro[4,5-dihydrothieno[2,3-c]pyran-7,4′-piperidine]-4-ol], the figure is less than 100 nM; as for `CCc1cc2c(s1)[C@]1(CCN(Cc3cn(CCS(C)(=O)=O)nn3)[C@@H](C)C1)OCC2O` (stereo partly drawn) [Compound 1038, (2′S,7R)-2-ethyl-2′-methyl-1′-[[1-(2-methylsulfonylethyl)triazol-4-yl]methyl]spiro[4,5-dihydrothieno[2,3-c]pyran-7,4′-piperidine]-4-ol], less than 100 nM.

For `CCc1cc2c(s1)CCO[C@@]21CCN(C[C@H]2C[C@@H](NC(=O)OC(C)(C)C)C2)[C@@H](C)C1` [Compound 1039], the IC50 was less than 100 nM. As for `CS(=O)(=O)CCn1cc(CN2CCC3(CC2C2CC2)OCCc2cc(Cl)sc23)cn1` (centres unmarked) [Compound 1040, 2-chloro-2′-cyclopropyl-1′-[[1-(2-methylsulfonylethyl)pyrazol-4-yl]methyl]spiro[4,5-dihydrothieno[2,3-c]pyran-7,4′-piperidine]], the figure is less than 100 nM; as for `CCc1cc2c(s1)CCOC21CCN(Cc2cnn(C)c2)C(CC)C1` (centres unmarked) [Compound 1041, 2,2′-diethyl-1-((1-methyl-1H-pyrazol-4-yl)methyl)-6′,7′-dihydrospiro[piperidine-4,4′-thieno [3,2-c]pyran]], less than 100 nM; as for `CCc1cc2c(s1)CCOC21CCN(Cc2cnn(C)c2)C2(CCC2)C1` (centres unmarked) [Compound 1042, 2″-ethyl-1′-((1-methyl-1H-pyrazol-4-yl)methyl)-6″,7″-dihydrodispiro[cyclobutane-1,2′-piperidine-4′,4″-thieno[3,2-c]pyran]], 100 to 500 nM.

For the origin of these results see US20250171459A1, “2-METHYL-4',5'-DIHYDROSPIRO[PIPERIDINE-4,7'-THIENO[2,3-C]PYRAN] DERIVATIVES AS INHIBITORS OF APOL1 AND METHODS OF USING SAME” (Vertex Pharmaceuticals Incorporated, priority 2022, published 2025).
